Measurements published in ChEMBL document CHEMBL1150311, “4-Methyl-5-phenyl triazoles as selective inhibitors of 11beta-hydroxysteroid dehydrogenase type I” (Bioorg Med Chem Lett, 2008).

Key:
[1] = target: 11-beta-hydroxysteroid dehydrogenase 1 (Mus musculus, UniProt P50172); assay: Inhibition of mouse 11beta HSD1 by SPA assay
[2] = target: T1, 11-beta-hydroxysteroid dehydrogenase type 2 (Mus musculus, UniProt P51661); assay: Inhibition of mouse 11beta HSD2
T1 sequence (P51661 whole entry): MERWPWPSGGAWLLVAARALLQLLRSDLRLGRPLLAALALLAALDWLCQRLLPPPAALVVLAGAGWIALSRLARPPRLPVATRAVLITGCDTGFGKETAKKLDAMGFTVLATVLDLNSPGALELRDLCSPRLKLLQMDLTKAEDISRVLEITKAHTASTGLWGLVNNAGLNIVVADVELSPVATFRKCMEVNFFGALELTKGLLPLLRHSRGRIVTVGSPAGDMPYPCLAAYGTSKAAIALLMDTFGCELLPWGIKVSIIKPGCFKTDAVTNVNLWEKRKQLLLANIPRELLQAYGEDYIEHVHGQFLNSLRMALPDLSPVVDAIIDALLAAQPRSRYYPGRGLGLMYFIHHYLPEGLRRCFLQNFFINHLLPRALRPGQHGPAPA

[3] = target: T2, 11-beta-hydroxysteroid dehydrogenase type 2 (Homo sapiens, UniProt P80365); assay: Inhibition of human 11beta HSD2
T2 sequence (P80365 whole entry): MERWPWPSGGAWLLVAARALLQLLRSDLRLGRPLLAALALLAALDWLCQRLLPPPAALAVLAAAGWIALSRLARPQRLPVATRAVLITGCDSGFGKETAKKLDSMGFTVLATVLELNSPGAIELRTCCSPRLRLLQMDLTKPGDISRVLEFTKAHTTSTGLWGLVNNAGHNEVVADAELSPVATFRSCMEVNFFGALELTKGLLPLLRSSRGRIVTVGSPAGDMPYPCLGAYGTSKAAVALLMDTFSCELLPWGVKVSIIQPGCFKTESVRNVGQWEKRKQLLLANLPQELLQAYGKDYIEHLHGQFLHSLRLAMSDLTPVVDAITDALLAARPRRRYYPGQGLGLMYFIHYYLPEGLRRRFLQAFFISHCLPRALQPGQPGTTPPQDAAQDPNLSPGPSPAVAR

[4] = target: 11-beta-hydroxysteroid dehydrogenase 1 (Homo sapiens, UniProt P28845); assay: Inhibition of human 11beta HSD1 by SPA assay
Mus musculus [5] = assay: Inhibition of [3H]cortisone to [3H]cortisol conversion in mouse at 10 mg/kg, po administered as single dose after 4 hrs; assay type: functional
Mus musculus [6] = assay: Inhibition of [3H]cortisone to [3H]cortisol conversion in mouse at 10 mg/kg, po administered as single dose after 1 hr; assay type: functional
[7] = target: T3, Nuclear receptor subfamily 1 group I member 2 (Homo sapiens, UniProt O75469); assay: Agonist activity at human PXR at 10 uM; assay type: functional
T3 sequence (O75469 whole entry): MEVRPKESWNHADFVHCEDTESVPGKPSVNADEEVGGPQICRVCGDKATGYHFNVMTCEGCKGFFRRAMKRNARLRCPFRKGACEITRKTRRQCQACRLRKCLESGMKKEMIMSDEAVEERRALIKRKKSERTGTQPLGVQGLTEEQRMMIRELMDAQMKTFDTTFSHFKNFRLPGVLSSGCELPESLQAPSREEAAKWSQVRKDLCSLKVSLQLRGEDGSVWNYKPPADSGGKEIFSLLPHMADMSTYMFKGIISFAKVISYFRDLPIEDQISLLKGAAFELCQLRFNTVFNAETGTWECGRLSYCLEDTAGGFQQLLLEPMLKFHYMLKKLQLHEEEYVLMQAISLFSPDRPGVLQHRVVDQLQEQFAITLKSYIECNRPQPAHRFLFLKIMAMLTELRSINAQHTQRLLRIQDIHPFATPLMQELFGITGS

[8] = target: T3, Nuclear receptor subfamily 1 group I member 2; assay: Agonist activity at human PXR; assay type: functional

Chain of 11-beta-hydroxysteroid dehydrogenase 1 (Mus musculus, UniProt P50172) (P50172 whole entry): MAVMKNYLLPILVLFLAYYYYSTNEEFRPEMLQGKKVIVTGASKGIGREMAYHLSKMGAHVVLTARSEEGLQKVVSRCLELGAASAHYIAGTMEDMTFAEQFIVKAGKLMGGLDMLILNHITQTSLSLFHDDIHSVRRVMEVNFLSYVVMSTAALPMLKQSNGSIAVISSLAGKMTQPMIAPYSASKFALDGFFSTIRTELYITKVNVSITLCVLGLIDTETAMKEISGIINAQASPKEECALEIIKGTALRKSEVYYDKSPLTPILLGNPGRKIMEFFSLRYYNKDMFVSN
Chain of 11-beta-hydroxysteroid dehydrogenase 1 (Homo sapiens, UniProt P28845) (P28845 whole entry): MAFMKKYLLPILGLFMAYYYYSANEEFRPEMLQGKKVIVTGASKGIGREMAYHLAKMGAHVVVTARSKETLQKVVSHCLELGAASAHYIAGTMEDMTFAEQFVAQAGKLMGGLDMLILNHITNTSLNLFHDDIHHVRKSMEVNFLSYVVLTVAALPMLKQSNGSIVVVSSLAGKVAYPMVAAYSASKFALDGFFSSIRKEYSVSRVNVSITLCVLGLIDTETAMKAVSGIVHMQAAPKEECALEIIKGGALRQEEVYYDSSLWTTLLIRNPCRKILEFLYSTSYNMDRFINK

IC50 [1] [nM] | IC50 [2] [nM] | IC50 [3] [nM] | IC50 [4] [nM] | Activity [7] [%] | EC50 [8] [nM] | SMILES | inhibition in vivo at 10 mg/kg (Mus musculus [5]) [%] | inhibition in vivo at 10 mg/kg (Mus musculus [6]) [%]
101 | > 4000 | > 4000 | 1.5 | – | – | Cn1c(-c2ccc(F)cc2)nnc1C1(c2ccc(Cl)cc2)CCC1 | – | –
34 | > 4000 | > 4000 | 1 | – | – | Cn1c(-c2cccc(Cl)c2)nnc1C1(c2ccc(Cl)cc2)CCC1 | 12 | 24
46 | > 4000 | > 4000 | 3.5 | – | – | Cn1c(-c2ccc(-n3ccnc3)cc2)nnc1C1(c2ccc(Cl)cc2)CCC1 | 44 | 79
9.1 | > 4000 | > 4000 | 11 | – | – | Cn1c(-c2ccc(-c3ccc(F)cc3)cc2)nnc1C1(c2ccc(Cl)cc2)CCC1 | – | –
4 | > 4000 | > 4000 | 11 | – | – | Cn1c(-c2ccc(-c3ccccc3)cc2)nnc1C1(c2ccc(Cl)cc2)CCC1 | 90 | 86
13 | > 4000 | > 4000 | 1 | – | – | Cn1c(-c2ccc(Cl)cc2Cl)nnc1C1(c2ccc(Cl)cc2)CCC1 | – | –
– | > 10000 | > 3000 | – | – | – | C1CCc2nnc(C34CC5CC(CC(C5)C3)C4)n2CC1 | 21 | 31
9.4 | > 4000 | – | 14 | 23 | 7900 | Cn1c(-c2ccc(-n3ccnc3S(C)(=O)=O)cc2Cl)nnc1C1(c2ccc(Cl)cc2)CCC1 | – | –
61 | > 4000 | > 4000 | 2 | – | – | Cn1c(-c2ccc(O)c(F)c2)nnc1C1(c2ccc(Cl)cc2)CCC1 | 6 | 3
3.7 | > 4000 | > 4000 | 26 | – | – | Cn1c(-c2ccc(Oc3ccccc3)cc2)nnc1C1(c2ccc(Cl)cc2)CCC1 | – | –
42 | > 4000 | > 4000 | 3 | – | – | COc1ccc(-c2nnc(C3(c4ccc(Cl)cc4)CCC3)n2C)cc1F | -1 | 10
3.9 | > 4000 | – | 3.9 | – | – | CSc1nccn1-c1ccc(-c2nnc(C3(c4ccc(Cl)cc4)CCC3)n2C)c(Cl)c1 | – | –
109 | > 4000 | > 4000 | 37 | – | – | Cn1c(-c2ccccc2)nnc1C12CC3CC(CC(C3)C1)C2 [FIG 1] | 47 | 85
4.1 | > 4000 | > 4000 | 2.3 | – | – | Cn1c(-c2ccccc2OC(F)(F)F)nnc1C1(c2ccc(Cl)cc2)CCC1 | 44 | 59
8.2 | > 4000 | > 4000 | 3.8 | – | – | Cn1c(-c2ccc(I)cc2)nnc1C1(c2ccc(Cl)cc2)CCC1 | – | –
1.8 | > 4000 | > 4000 | 14 | – | – | Cn1c(-c2ccc(C(C)(C)C)cc2)nnc1C1(c2ccc(Cl)cc2)CCC1 | – | –
17 | > 4000 | > 4000 | 1.8 | – | – | Cn1c(-c2ccccc2O)nnc1C1(c2ccc(Cl)cc2)CCC1 | -2 | -2
52 | > 4000 | > 4000 | 1.7 | – | – | Cn1c(-c2ccccc2)nnc1C1(c2ccc(Cl)cc2)CCC1 | 29 | 47
3.1 | > 4000 | > 4000 | 44 | – | – | Cn1c(-c2ccc(-c3nccs3)cc2)nnc1C1(c2ccc(Cl)cc2)CCC1 | 67 | 92

IC50 [1] [nM] | IC50 [2] [nM] | IC50 [3] [nM] | IC50 [4] [nM] | Activity [7] [%] | EC50 [8] [nM] | SMILES | inhibition in vivo at 10 mg/kg (Mus musculus [5]) [%] | inhibition in vivo at 10 mg/kg (Mus musculus [6]) [%]
5.4 | > 4000 | > 4000 | 3 | – | – | Cn1c(-c2ccc(-n3cccc3)cc2)nnc1C1(c2ccc(Cl)cc2)CCC1 | 28 | 41
57 | > 4000 | – | 12 | – | – | Cc1nc2ccccc2n1-c1ccc(-c2nnc(C3(c4ccc(Cl)cc4)CCC3)n2C)c(Cl)c1 | – | –
36 | > 4000 | > 4000 | 2.2 | – | – | Cn1c(-c2cccc(OC(F)(F)F)c2)nnc1C1(c2ccc(Cl)cc2)CCC1 | – | –
18 | > 4000 | > 4000 | 68 | – | – | Cn1c(-c2ccc(Cc3ccccc3)cc2)nnc1C1(c2ccc(Cl)cc2)CCC1 | -4 | 20
7.2 | > 4000 | – | 6.9 | – | – | Cc1cn(-c2ccc(-c3nnc(C4(c5ccc(Cl)cc5)CCC4)n3C)c(Cl)c2)c(C)n1 | – | –
3.5 | > 4000 | > 4000 | 0.28 | – | – | Cn1c(-c2ccccc2Cl)nnc1C1(c2ccc(Cl)cc2)CCC1 | 73 | 86
21 | > 4000 | > 4000 | 2 | – | – | Cn1c(-c2ccccc2F)nnc1C1(c2ccc(Cl)cc2)CCC1 | – | –
7.8 | > 4000 | > 4000 | 2.7 | – | – | COc1ccccc1-c1nnc(C2(c3ccc(Cl)cc3)CCC2)n1C | 12 | 28
6.9 | > 4000 | > 4000 | 13 | – | – | Cn1c(-c2ccc(OC(F)(F)F)cc2)nnc1C1(c2ccc(Cl)cc2)CCC1 | 27 | 64
2.2 | > 4000 | > 4000 | 10 | – | – | Cn1c(-c2ccc(OC3CC3)cc2)nnc1C1(c2ccc(Cl)cc2)CCC1 | 95 | 95
21 | > 4000 | > 4000 | 5 | – | – | Cc1ccccc1-c1nnc(C2(c3ccc(Cl)cc3)CCC2)n1C | 1 | 9
43 | > 4000 | > 4000 | 2.7 | – | – | Cn1c(-c2ccc(Cl)cc2)nnc1C1(c2ccc(Cl)cc2)CCC1 | 14 | 20
163 | > 4000 | > 4000 | 2.2 | – | – | Cn1c(-c2cccc(F)c2)nnc1C1(c2ccc(Cl)cc2)CCC1 | – | –
4 | > 4000 | > 4000 | 2 | – | – | Cn1c(-c2ccccc2C(F)(F)F)nnc1C1(c2ccc(Cl)cc2)CCC1 | 63 | 73
19 | > 4000 | > 4000 | 1 | – | – | Cn1c(-c2cccc(O)c2)nnc1C1(c2ccc(Cl)cc2)CCC1 | – | –
– | > 4000 | > 4000 | 1.3 | – | – | Clc1ccc(C2(c3nnc4n3CCCCCC4)CCC2)cc1 | – | –
56 | > 4000 | > 4000 | 4.3 | – | – | Cn1c(-c2cccc(-c3ccccc3)c2)nnc1C1(c2ccc(Cl)cc2)CCC1 | -2 | -2
26 | > 4000 | > 4000 | 9.3 | – | – | Cn1c(-c2ccc(C(F)(F)F)cc2)nnc1C1(c2ccc(Cl)cc2)CCC1 | – | –
19 | > 4000 | > 4000 | 0.34 | – | – | Cn1c(-c2ccc(O)cc2)nnc1C1(c2ccc(Cl)cc2)CCC1 | 10 | 17
